{"source": "patent US8476319B2", "about": "“Methods of treating ear infections” (3M Innovative Properties Company, priority 2005, dated 2013)", "key": {"[1]": {"tested_on": "Organ of Corti hair cells", "assay": "Ototoxicity testing in chinchillas (trans bullar injection, Organ of Corti surface preparation)", "conditions": "0.1 cc into middle ear, two injections, 17 days", "source_text": "Initial screening of selected components for ototoxic effect was preformed using chinchillas. The compounds or compounds plus vehicle were placed in proximity to the round window membrane of the chinchilla and the tissues evaluated for ototoxic insult.\nGeneral Test Procedure: Chinchillas were mildly anesthetized using 0.1 cc IM ketamine. The skin overlying the ventral aspect of the left and right bulla were shaved and surgically prepped. An amount (0.1 cubic centimeter (cc)) of the test material was placed in the middle ear near the round window niche using a 1 cc syringe with a 23 guage needle by trans bullar injection. Three days later the procedure was repeated using the same test material in each ear. Fourteen days after the second injection (total survival time=17 days) the animals were sacrificed. The bullae were removed, the cochlea isolated and perfused with fixative through the round window membrane. After standard preparation (fixation and decalcification) the samples were dissected and the Organ of Corti isolated and evaluated for ototoxic insult. The surface preparation analysis of the Organ of Corti is a universally accepted method of evaluating hair cell loss due to ototoxic insult. The chinchilla is the standard test animal used and a 14 day survival time is adequate to screen for gross hair cell disruption due to ototoxic effect. The materials were tested in both a right and left ear but using two different animals.\nThis served as a positive control."}, "[2]": {"assay": "Transport through the tympanic membrane, GC of saline recovered from middle ear", "format": "in vivo, chinchilla", "conditions": "for formulation component detected by GC in saline recovered from the middle ear: Example 2 formulation in outer ear next to tympanic membrane, samples at 15, 30, 60 min", "protocol": "Example 2 formulation was evaluated for transportability across the ear drum (tympanic membrane) and into the middle ear with an animal model test using chinchillas (400 g to 500 g). A cotton plug saturated with Example 2 formulation was placed against the outer ear membrane of a chinchilla. An opening was made into the middle ear through the bulla and 1 mL saline was placed in the middle ear. At 15, 30, and 60 min. the saline was withdrawn and replaced with fresh saline. Tympanometry was completed before and after the test compositions were applied to ensure the tympanic membrane was intact (without perforations). The saline samples were kept at 4° C. until assayed.\nGC Analysis: Six samples of saline recovered from the middle ear of a chinchilla were analyzed by GC. They were recovered from both the left and right ears of the test animal at 15, 30, and 60 min after an antibacterial formulation was placed in the outer ear next to the tympanic membrane. The GC analysis detected the formulation components of GML, FINSOLV NT, and benzoic acid.\nStandard preparation: A single external standard of GML (Medchem—97%) at 1 mg/mL was prepared in CHCl3. Standards of methyl benzoate and FINSOLV NT were also available. Saline (0.9% NaCl) was prepared in the lab.\nSample Extraction: The six samples were contained in 1.5 mL clear plastic micorcentrifuge tubes. The 30- and 60-min samples were clear while the 15-min samples contained a water insoluble residue (there appeared to be so much antimicrobial composition in the sample collected a separate phase was noted by the analyst). The liquid was vortexed and transferred to separate 10 mL graduated clinical centrifuge tubes and the volume recorded. The sample tubes were rinsed once with approximately 0.5 mL saline vortexed and transferred to the centrifuge tube. The microtubes were rinsed a second time with approximately 0.75 mL chloroform which was also transferred to the clinical centrifuge tube. The chloroform dissolved the residue in the 15 min samples. The liquid level in the centrifuge tubes was brought to 1.7 mL by the addition of saline solution. A sample (4.5 mL) of CHCl3 was then added to the centrifuge tubes using a 5-mL graduated glass pipette. The tubes were then sealed with TEFLON screw cap tops and vortexed for 2 min. They were then centrifuged in an IEC clinical centrifuge until 2 clear phases formed (approximately 5 min). Using Pasture pipettes, the lower (organic) phases were quantitatively transferred to a set of preweighed 7-mlL vials. The extracts were treated with diazomethane (DAM) which formed the methyl esters of acids present, in this case methyl benzoate from benzoic acid present. Extracts were placed on a warm heating block and taken to dryness under a stream of nitrogen. Once constant weight was obtained, the samples were re-weighed and the net weight was recorded. Using a graduated pipette enough CHCl3 was added back to the 15 min extracts to achieve a concentration of 1 mg/mL in GML. The 30 and 60 min samples had much less weight so an arbitrary ½ mL of CHCl3 was added. An aliquot of each sample was then transferred to an autosampler vial and analyzed by GC using the conditions below. Gas Chromatography: • Instrument—HP 5890 • Column—15 meter STABILWAX-DA, 0.25 μm film 0.25 mm ID • Carrier—He, 2.07×10^5 N/m^2(30 psi) constant pressure • Injection—2 μL split 1:60, injector temp 250° C. • Liner—Restek SILTEK deactivated liner with SILTEK • deactivated glass wool (catalog number 22406-213.5) • Program—110° C. initial, 7° C./min to 250°, hold 10 minutes • Detector—FID at 250° C.\nThe total recovered GML was determined by direct GC analysis of the fractions. […] As indicated above a standard of methyl benzoate was substituted for benzoic acid. The components have been identified and the FINSOLV TN contributes most of the peak area. […]"}, "[3]": {"conditions": "recovered from middle ear saline 15 minutes after Example 2 formulation placed against tympanic membrane"}, "[4]": {"conditions": "recovered from middle ear saline 30 minutes after Example 2 formulation placed against tympanic membrane"}, "[5]": {"conditions": "total of 15, 30 and 60 minute samples, Example 2 formulation"}}, "data": [{"molecule": "CCCCC(CC)COC(=O)CC(C(=O)OCC(CC)CCCC)S(=O)(=O)[O-].[Na+]", "note": "(stereo not drawn) [GEMTEX (DOSS), Dioctylsulfosuccinate, sodium salt]", "values": [{"measurement": "Ototoxicity Result", "setting": "[1]; 1% / 1.0% in water", "result": "Toxic (toxic (rating 2-4))"}]}, {"molecule": "CCCCCCCCCCCC(=O)OCC(O)CO", "note": "(stereo not drawn) [GML, Glycerol monolaurate]", "values": [{"measurement": "formulation component detected by GC in saline recovered from the middle ear", "setting": "[2]", "result": "detected"}, {"measurement": "Left ear GML", "setting": "[2]; [3]", "result": 10.3, "unit": "mg"}, {"measurement": "Right ear GML", "setting": "[2]; [3]", "result": 2.35, "unit": "mg"}, {"measurement": "Left ear GML", "setting": "[2]; [4]", "result": 0.03, "unit": "mg"}, {"measurement": "Right ear GML", "setting": "[2]; [4]", "result": 0.98, "unit": "mg"}, {"measurement": "Left ear GML (mg), Total", "setting": "[2]; [5]", "result": 10.33, "unit": "mg"}, {"measurement": "Right ear GML (mg), Total", "setting": "[2]; [5]", "result": 3.33, "unit": "mg"}, {"measurement": "Ototoxicity Result", "setting": "[1]; 0.5% in water", "result": "No toxicity (no toxicity (rating 1))"}, {"measurement": "Ototoxicity Result", "setting": "[1]; 1% / 1.0% in water", "result": "No toxicity (no toxicity (rating 1))"}, {"measurement": "Ototoxicity Result", "setting": "[1]; 1% in IPM", "result": "Toxic (toxic (rating 2-4))"}]}, {"molecule": "CCCCCCCCCCCCCC(=O)OC(C)C", "note": "[IPM, Isopropyl myristate]", "values": [{"measurement": "Ototoxicity Result", "setting": "[1]; 100%", "result": "Toxic (toxic (rating 2-4))"}]}, {"molecule": "O=C(O)c1ccccc1", "note": "[benzoic acid, Benzoic acid]", "values": [{"measurement": "formulation component detected by GC in saline recovered from the middle ear", "setting": "[2]", "result": "detected"}]}, {"molecule": "Propylene glycol monocaprylate [PG monocaprylate]", "values": [{"measurement": "Ototoxicity Result", "setting": "[1]; 0.25% in water", "result": "No toxicity (no toxicity (rating 1))"}, {"measurement": "Ototoxicity Result", "setting": "[1]; 1% / 1.0% in water", "result": "No toxicity (no toxicity (rating 1))"}]}]}
